Assay results from paper PMC7367283, “A PIP2 substitute mediates voltage sensor-pore coupling in KCNQ activation” (Communications Biology, 2020).
Several values for one entry are separate records, joined by “and”; a condition that tells them apart may be missing. Identical values can stand only once.

Biological target: IKs (KCNQ1 + KCNE1) (Homo sapiens, UniProt P51787)
Assay: Two-electrode voltage clamp of IKs channels expressed in Xenopus oocytes
Format: cell-based
Design: key to G/Gcontrol(max): conductance / max control conductance (control max = 1)
Details: for Current: Fig. 4g; for ∆V1/2 of activation induced by CP1 (mean): Fig. 4i dose response; for G/Gcontrol(max): Fig. 4h
From the text: Our previous studies have shown that the VSD of KCNQ1 activates to an intermediate state (I state) and an activated state (A state) upon membrane depolarization, and the pore can open when VSD is at either the intermediate (IO state) or activated (AO state)[23],[24]. The association of the auxiliary subunit KCNE1 with KCNQ1 affects VSD-pore coupling to suppress the IO state and enhance the AO state. Correspondingly, the association of KCNE1 also increases the PIP2 sensitivity of the channel[24],[37]. […] The most prominent effect of CP1 is to dramatically slow the deactivation of IKs, such that at 2 µM CP1, it took a 100-s interval at −120 mV for all the channels to deactivate from their previous activation (Fig. 4a). The application of 2 µM CP1 shifted the G–V relation to more negative voltages by ~13 mV (Fig. 4b). […] A fraction of the constitutively open channels might have been open during the previous test pulses and not deactivated during the shorter and less-hyperpolarized interval pulse to cause a current accumulation. […] In higher concentrations of CP1, we were not able to suppress the constitutive opening of KCNQ1 channels even with long and negative interval voltages, so that we used 20-s and −80-mV interval pulses in the recordings (Fig. 4e). […] In comparison with KCNQ1 expressed alone, CP1 caused a larger shift of the G–V relationship when KCNE1 was co-expressed (Fig. 4i). Since the IKs currents were difficult to measure accurately at high CP1 concentrations, we were unable to determine the EC50 of the channel response to CP1.
Fig. 4 Effects of CP1 on IKs channels. a, b IKs currents in the absence (left) and presence of 2 µM CP1 (right) recorded with 100-s and −120-mV interval pulses between testing voltages. Holding potential: −80 mV; testing potential: −120 to +80 mV; returning potential: −40 mV (a). G–V relations (b). c, d IKs recorded at the same conditions as in (a), except for the interval pulses, was 20 s at −80 mV. e, f IKs in the absence or presence of 10 µM CP1. The voltage protocol was the same as in (b). g, h Current (g) and relative conductance (h) increases of IKs channels by 10 µM CP1. In h, the measured conductance in CP1 at all voltages was divided by the maximum measured conductance in control, and then normalized with the maximum measured conductance in control being 1. i Dose response for ΔV1/2 of G–V relations to different CP1 concentrations as compared with those of KCNQ1 (dashed line).
The use of Xenopus laevis to obtain oocytes was approved by the Washington University Animal Studies Committee (protocol #20190030). Oocytes were manually dispersed and digested with collagenase (0.5 mg/ml, Sigma-Aldrich, Saint Louis, MO) to remove the follicle cell layer. Stage V or VI oocytes were selected and injected with cRNAs (9.2 ng) of channel or mutations. Especially, to characterize IKs, a mix of cRNAs at a molar ratio 4:1 (KCNQ1:KCNE1) was injected. For KCNQ2/KCNQ3, the molar ratio was 1:1 (KCNQ2:KCNQ3). For sodium channels, a 3:1 molar ratio (β1:NaV1.5) and for calcium channels a weight ratio 1:1:1 (β1:α2/δ1:CaV1.2) was injected, respectively. Injected oocytes were incubated in ND96 solution containing (in mM) 96 NaCl, 2 KCl, 1.8 CaCl2, 1 MgCl2, and 5 HEPES, pH 7.6, supplemented with 2.5 mM Na pyruvate and 1% penicillin–streptomycin, at 18 °C for 3–7 days before recording.
The whole-oocyte ionic currents were recorded with a GeneClamp 500B amplifier (Axon Instruments, CA) or iTEV90 amplifier (HEKA, Germany) and then sampled at 1 kHz and low-pass-filtered at 2 kHz. The Patchmaster software (HEKA, Germany) was used to acquire data. The Kir1.1 current was recorded with a high K^+ bath solution containing (in mM) 96 KCl, 4 NaCl, 1 CaCl2, 2 MgCl2, and 10 HEPES, pH 7.3–7.4. The HCN4 current was recorded in ND66 solution containing (in mM) 66 NaCl, 32 KCl, 1.8 CaCl2, 1 MgCl2, and 5 HEPES, pH 7.6. All the other potassium channels were recorded in ND96 solution. […]

SMILES: O=S(=O)([O-])Oc1c(-c2sc3c(ccc4cccc(Cl)c43)c2OS(=O)(=O)[O-])[nH]c2ccc(Br)cc12.[Na+].[Na+] [CP1, DISODIUM 5-BROMO-2-[9-CHLORO-3-(SULFONATOOXY) NAPHTHO [1,2-B] THIEN-2-YL]-1H-INDOL-3-YL SULFATE]
- shift of G–V relation (2 µM CP1, 20-s and −80-mV interval pulses): ~ 12 mV
- shift of G–V relation to more negative voltages (2 µM CP1, 100-s and −120-mV interval pulses): ~ 13 mV
- outward current (Icp1/Ictrl) (10 µM CP1, Q1/E1, at +40 mV, individual oocytes): 3.3641 and 3.7408 and 2.3715 and 2.9989 and 4.6393
- ∆V1/2 (10 µM CP1, Q1/E1, individual oocytes): 64.6738 mV and 84.3167 mV and 109.16 mV and 34.9084 mV and 123.145 mV
- τ deact at -120 mV (10 µM CP1 treated, Q1/E1, individual oocytes): 3.5736 s and 3.9322 s and 2.999 s and 3.0124 s and 2.7649 s and 3.45 s and 3.7957 s
- G/Gmax Mean (Fig. 4b, 2 µM CP1, 0 mV): 0.3833
- G/Gmax Mean (Fig. 4b, 2 µM CP1, 20 mV): 0.7035
- G/Gmax Mean (Fig. 4b, 2 µM CP1, 40 mV): 0.9619
- G/Gmax Mean (Fig. 4b, 2 µM CP1, 60 mV): 1.0000
- G/Gmax Mean (Fig. 4b, 2 µM CP1, -20 mV): 0.1567
- G/Gmax Mean (Fig. 4b, 2 µM CP1, -40 mV): 0.0500
- G/Gmax Mean (Fig. 4b, 2 µM CP1, -60 mV): 0.0188
- G/Gmax Mean (Fig. 4b, 2 µM CP1, -80 mV): 0.0090
- G/Gmax Mean (Fig. 4b, 2 µM CP1, -100 mV): 0.0050
- G/Gmax Mean (Fig. 4b, 2 µM CP1, -120 mV): 0.0140
- G/Gmax Mean (Fig. 4f, 10 µM CP1, 0 mV): 0.9498
- G/Gmax Mean (Fig. 4f, 10 µM CP1, 10 mV): 0.9622
- G/Gmax Mean (Fig. 4f, 10 µM CP1, 20 mV): 0.9768
- G/Gmax Mean (Fig. 4f, 10 µM CP1, 30 mV): 0.9888
- G/Gmax Mean (Fig. 4f, 10 µM CP1, 40 mV): 0.9959
- G/Gmax Mean (Fig. 4f, 10 µM CP1, 50 mV): 1.0000
- G/Gmax Mean (Fig. 4f, 10 µM CP1, 60 mV): 0.9995
- G/Gmax Mean (Fig. 4f, 10 µM CP1, 70 mV): 0.9975
- G/Gmax Mean (Fig. 4f, 10 µM CP1, 80 mV): 0.9882
- G/Gmax Mean (Fig. 4f, 10 µM CP1, -10 mV): 0.9293
- G/Gmax Mean (Fig. 4f, 10 µM CP1, -20 mV): 0.9108
- G/Gmax Mean (Fig. 4f, 10 µM CP1, -30 mV): 0.8947
- G/Gmax Mean (Fig. 4f, 10 µM CP1, -40 mV): 0.8796
- G/Gmax Mean (Fig. 4f, 10 µM CP1, -50 mV): 0.8652
- G/Gmax Mean (Fig. 4f, 10 µM CP1, -60 mV): 0.8490
- G/Gmax Mean (Fig. 4f, 10 µM CP1, -70 mV): 0.8309
- G/Gmax Mean (Fig. 4f, 10 µM CP1, -80 mV): 0.8109
- G/Gmax Mean (Fig. 4f, 10 µM CP1, -90 mV): 0.7850
- G/Gmax Mean (Fig. 4f, 10 µM CP1, -100 mV): 0.7801
- G/Gmax Mean (Fig. 4f, 10 µM CP1, -110 mV): 0.7703
- G/Gmax Mean (Fig. 4f, 10 µM CP1, -120 mV): 0.7614
- Current (10 µM CP1, 0 mV): 11.3690 µA
- Current (10 µM CP1, 10 mV): 13.1145 µA
- Current (10 µM CP1, 20 mV): 14.8276 µA
- Current (10 µM CP1, 30 mV): 16.4399 µA
- Current (10 µM CP1, 40 mV): 17.8196 µA
- Current (10 µM CP1, 50 mV): 18.8339 µA
- Current (10 µM CP1, 60 mV): 19.4658 µA
- Current (10 µM CP1, 70 mV): 19.7856 µA
- Current (10 µM CP1, 80 mV): 19.9691 µA
- Current (10 µM CP1, -10 mV): 9.6451 µA
- Current (10 µM CP1, -20 mV): 8.0042 µA
- Current (10 µM CP1, -30 mV): 6.4510 µA
- Current (10 µM CP1, -40 mV): 5.0169 µA
- Current (10 µM CP1, -50 mV): 3.6974 µA
- Current (10 µM CP1, -60 mV): 2.5078 µA
- Current (10 µM CP1, -70 mV): 1.4333 µA
- Current (10 µM CP1, -80 mV): 0.5290 µA
- Current (10 µM CP1, -90 mV): -0.3014 µA
- Current (10 µM CP1, -100 mV): -0.9865 µA
- Current (10 µM CP1, -110 mV): -1.5545 µA
- Current (10 µM CP1, -120 mV): -2.0910 µA
- ∆V1/2 of activation induced by CP1 (mean) ([CP1] 1 µM): 14.4504 mV
- ∆V1/2 of activation induced by CP1 (mean) ([CP1] 2 µM): 15.8525 mV
- ∆V1/2 of activation induced by CP1 (mean) ([CP1] 3 µM): 21.4391 mV
- ∆V1/2 of activation induced by CP1 (mean) ([CP1] 5 µM): 41.6182 mV
- ∆V1/2 of activation induced by CP1 (mean) ([CP1] 6 µM): 46.8783 mV
- ∆V1/2 of activation induced by CP1 (mean) ([CP1] 10 µM): 97.2701 mV
- ∆V1/2 of activation induced by CP1 (mean) ([CP1] 15 µM): 120.8217 mV
- ∆V1/2 of activation induced by CP1 (mean) ([CP1] 20 µM): 143.8484 mV
- ∆V1/2 of activation induced by CP1 (mean) ([CP1] 25 µM): 174.0381 mV
- G/Gcontrol(max) (10 µM CP1, 0 mV): 2.2457
- G/Gcontrol(max) (10 µM CP1, 10 mV): 2.2822
- G/Gcontrol(max) (10 µM CP1, 20 mV): 2.3257
- G/Gcontrol(max) (10 µM CP1, 30 mV): 2.3635
- G/Gcontrol(max) (10 µM CP1, 40 mV): 2.3895
- G/Gcontrol(max) (10 µM CP1, 50 mV): 2.4063
- G/Gcontrol(max) (10 µM CP1, 60 mV): 2.4120
- G/Gcontrol(max) (10 µM CP1, 70 mV): 2.4121
- G/Gcontrol(max) (10 µM CP1, 80 mV): 2.3902
- G/Gcontrol(max) (10 µM CP1, -10 mV): 2.1869
- G/Gcontrol(max) (10 µM CP1, -20 mV): 2.1346
- G/Gcontrol(max) (10 µM CP1, -30 mV): 2.0892
- G/Gcontrol(max) (10 µM CP1, -40 mV): 2.0471
- G/Gcontrol(max) (10 µM CP1, -50 mV): 2.0074
- G/Gcontrol(max) (10 µM CP1, -60 mV): 1.9645
- G/Gcontrol(max) (10 µM CP1, -70 mV): 1.9185
- G/Gcontrol(max) (10 µM CP1, -80 mV): 1.8692
- G/Gcontrol(max) (10 µM CP1, -90 mV): 1.8061
- G/Gcontrol(max) (10 µM CP1, -100 mV): 1.7954
- G/Gcontrol(max) (10 µM CP1, -110 mV): 1.7738
- G/Gcontrol(max) (10 µM CP1, -120 mV): 1.7540
- G/Gmax Mean (Fig. 4d, 2 µM CP1, 0 mV): 0.2264
- G/Gmax Mean (Fig. 4d, 2 µM CP1, 20 mV): 0.4604
- G/Gmax Mean (Fig. 4d, 2 µM CP1, 40 mV): 0.7375
- G/Gmax Mean (Fig. 4d, 2 µM CP1, 60 mV): 0.9406
- G/Gmax Mean (Fig. 4d, 2 µM CP1, 80 mV): 1.0000
- G/Gmax Mean (Fig. 4d, 2 µM CP1, -20 mV): 0.0874
- G/Gmax Mean (Fig. 4d, 2 µM CP1, -40 mV): 0.0291
- G/Gmax Mean (Fig. 4d, 2 µM CP1, -60 mV): 0.0147
- G/Gmax Mean (Fig. 4d, 2 µM CP1, -80 mV): 0.0247
- G/Gmax Mean (Fig. 4d, 2 µM CP1, -100 mV): 0.0692
